16 molecules from patent US20240269304A1, “BCL-XL INHIBITOR ANTIBODY-DRUG CONJUGATES AND METHODS OF USE THEREOF” (Novartis AG, priority 2020, published 2024) can be followed below.

One assay has as its system NCI-H1650. The experiment in a line: CellTiter Glo 3D spheroid proliferation/survival, 5 days, NCI-H1650, 0.0005-500 nM (Example 10). The note with it: spheroids, 0.0005-500 nM. Type of assay: cell-based, human. The protocol: One target was assessed: EGFR.
The ability of the BCL-xL antibody drug conjugates to inhibit cell proliferation and survival was assessed using the Promega CellTiter-Glo® proliferation assay.
Cell lines were cultured in media that is optimal for their growth at 5% CO2, 37° C. in a tissue culture incubator. Prior to seeding for the proliferation assay, the cells were split at least 2 days before the assay to ensure optimal growth density. […] Cell viability and cell density were determined using a cell counter (Vi-Cell XR Cell Viability Analyzer, Beckman Coulter).
Cells were seeded at a density of 3,000 cells per well in 45 uL of standard growth media. Plates were spun in a centrifuge for 5 minutes and 1,000 RPM. Plates were incubated at 5% CO2, 37° C. for 72 hours in a tissue culture incubator. On the day of dosing, EGFR targeting BCL-xL ADCs were prepared at 1OX in standard growth media. The prepared drug treatments were then added to the cells resulting in final concentrations of 0.0005-500 nM and a final volume of 50 μL per well. Each drug concentration was tested in quadruplets. Plates were incubated at 5% CO2, 37° C. for 5 days in a tissue culture incubator.
Cell viability was assessed through the addition of 40 μL of CellTiter Glo 3D Cell Viability Assay substrate (Promega, cat #G9681), a reagent which lyses cells and measures total adenosine triphosphate (ATP) content. Wells were mixed thoroughly and plates were incubated at room temperature for 30 minutes to stabilize luminescent signals prior to reading using a luminescence reader (EnVision Multilabel Plate Reader, PerkinElmer).
To evaluate the effect of the drug treatments, luminescent counts from wells containing untreated cells (100% viability) were used to normalize treated samples. […] IC50 and Amax values were extrapolated from the resultant curves.
For orientation: In ATP-based viability assays light output follows the ATP content of the culture.

The subject of the next assay is H1650 cells. The experiment in a line: CellTiterGlo (CTG) cell viability, 3D, 120 h, H1650 (Example 8). Type of assay: cell-based, human. Particulars: Homo sapiens, NCI-H1650, H1650 3D.
The subject of another assay is HCC1569 cells. The assay is described as follows: CellTiterGlo (CTG) cell viability, 120 h, HCC1569, single agent or with 10 nM Paclitaxel. It is filed as cell-based. Particulars: Homo sapiens. The protocol: HCC1569 cells were cultivated in RPMI supplemented with 10% heat inactivated fetal bovine serum, penicillin (100 IU/ml), streptomycin (100 μg/ml) and L-glutamine (2 mM). Cell lines were cultured at 37° C. in a humidified atmosphere containing 5% 002. […] Effects of ADCs on cell viability were assessed after 5 days of incubation at 37° C./5% CO2 by quantification of cellular ATP levels using CellTiterGlo at 75 μL reagent/well. All the conditions were tested in triplicates. Luminescence was quantified on a multipurpose plate reader. IC50s were calculated using standard four-parametric curve fitting.

[1] abbreviates: experiment n1, read-out: H1650 3D CTG IC50 n1.
Setting [2] is: experiment n2, read-out: H1650 3D CTG IC50 n2.
[3] abbreviates: mean of n1 and n2, read-out: H1650 3D CTG IC50 Mean of n1 and n2.
The mark [4] stands for this setting: HCC1569, read-out: HCC1569 CTG 120 h IC50 nM + Paclitaxel 10 nM Mean N1 and N2, in the presence of 10 nM Paclitaxel, mean.
Where [5] appears, read: HCC1569, read-out: HCC1569 CTG 120 h IC50 nM + Paclitaxel 10 nM N1, in the presence of 10 nM Paclitaxel, N1.
The mark [6] stands for this setting: HCC1569, read-out: HCC1569 CTG 120 h IC50 nM + Paclitaxel 10 nM N2, in the presence of 10 nM Paclitaxel, N2.
Setting [7] is: HCC1569, read-out: HCC1569 CTG 120 h IC50 nM Mean N1 and N2, single agent, mean.
The mark [8] stands for this setting: HCC1569, read-out: HCC1569 CTG 120 h IC50 nM N1, single agent, N1.
The mark [9] stands for this setting: HCC1569, read-out: HCC1569 CTG 120 h IC50 nM N2, single agent, N2.

Molecules are shown by their SMILES. Where two headings read alike, the source gives them in different places. Bounds are passed on as bounds.

One may read the IC50 as the midpoint of a concentration-inhibition curve.

Turning to `Cc1cc(N(CCCC(O)C[N+](C)(C)C)c2nc(C(=O)O)c(CCCOc3ccc(C#CCN(C)C(=O)OCc4ccc(NC(=O)[C@H](CCCNC(N)=O)NC(=O)[C@@H](NC(=O)CCOCCN5C(=O)CC(C)C5=O)C(C)C)cc4CN(C)C(=O)OCc4cn(CCOCCOCCOCCOCCOCCOCCOCCOCCC(=O)O)nn4)cc3F)s2)nnc1Nc1nc2ccccc2s1` (mixture of isomers) [EGFR1-L3C-P5], the half-maximal inhibitory concentration (IC50) in the assay on NCI-H1650 is > 500 nM.
As to `COCCOCCOCCOCCOCCOCCOCCOCCn1cc(COC(=O)N(C)Cc2cc(NC(=O)[C@H](CCCNC(N)=O)NC(=O)[C@@H](NC(=O)CCOCCN3C(=O)CC(C)C3=O)C(C)C)ccc2C[N+](C)(C)CC#Cc2ccc(OCCCc3sc(N4CCCc5c4nnc(Nc4nc6ccccc6s4)c5C)nc3C(=O)O)c(F)c2)nn1` (mixture of isomers) [EGFR1-L4A-P1], the IC50 in the assay on NCI-H1650 is < 0.686 nM.
For `Cc1c(Nc2nc3ccccc3s2)nnc2c1CCCN2c1nc(C(=O)O)c(CCCOc2ccc(C#CC[N+](C)(C)Cc3ccc(NC(=O)[C@H](CCCNC(N)=O)NC(=O)[C@@H](NC(=O)CCOCCN4C(=O)CC(C)C4=O)C(C)C)cc3COCc3cn(CCOCCOCCOCCOCCOCCOCCOCCOCCC(=O)O)nn3)cc2F)s1` (mixture of isomers) [EGFR1-L7A-P1], in the assay on NCI-H1650, the IC50 was < 0.686 nM.
Same read-out and setting: the same measure for `Cc1c(Nc2nc3ccccc3s2)nnc2c1CCCN2c1nc(C(=O)O)c(CCCOc2ccc(C#CCN(C)C(=O)OCc3ccc(NC(=O)[C@H](CCCNC(N)=O)NC(=O)[C@@H](NC(=O)CCOCCN4C(=O)CC(C)C4=O)C(C)C)cc3COCc3cn(CCOCCOCCOCCOCCOCCOCCOCCOCCC(=O)O)nn3)cc2F)s1` (mixture of isomers) [EGFR1-L7C-P3]: < 6.17 nM; for `Cc1cc(N(CCCN(C)C)c2nc(C(=O)O)c(CCCOc3ccc(C#CCN(C)C(=O)OCc4ccc(NC(=O)[C@H](CCCNC(N)=O)NC(=O)[C@@H](NC(=O)CCOCCN5C(=O)CC(C)C5=O)C(C)C)cc4COCc4cn(CCOCCOCCOCCOCCOCCOCCOCCOCCC(=O)O)nn4)cc3F)s2)nnc1Nc1nc2ccccc2s1` (mixture of isomers) [EGFR1-L7C-P6]: > 500 nM.
Still for that read-out and setting: the same measure for `Cc1cc(N(C)c2nc(C(=O)O)c(CCCOc3ccc(C#CCN(C)C(=O)OCc4ccc(NC(=O)[C@H](CCCNC(N)=O)NC(=O)[C@@H](NC(=O)CCOCCN5C(=O)CC(C)C5=O)C(C)C)cc4COCc4cn(CCOCCOCCOCCOCCOCCOCCOCCOCCC(=O)O)nn4)cc3F)s2)nnc1Nc1nc2ccccc2s1` (mixture of isomers) [EGFR1-L7C-P7]: < 55.6 nM.
Take `COCOCCOCCOCCOCCOCCOCCOCCn1cc(COCc2cc(NC(=O)[C@@H](CCCNC(N)=O)NC(=O)[C@H](NC(=O)CCOCCN3C(=O)CC(C)C3=O)C(C)C)ccc2C[N+](C)(C)CC#Cc2ccc(OCCCc3sc(N4CCCc5c4nnc(Nc4nc6ccccc6s4)c5C)nc3C(=O)O)c(F)c2)nn1` (mixture of isomers) [EGFR1-L8A-P1]: the IC50 with NCI-H1650 was < 2.06 nM.
As for `Cc1cc(N(CCCC(O)C[N+](C)(C)CCS(=O)(=O)O)c2nc(C(=O)O)c(CCCOc3ccc(C#CCN(C)C(=O)OCc4ccc(NC(=O)[C@H](CCCNC(N)=O)NC(=O)[C@@H](NC(=O)CCOCCN5C(=O)CC(C)C5=O)C(C)C)cc4)cc3F)s2)nnc1Nc1nc2ccccc2s1` (mixture of isomers) [EGFR1-L9C-P4], the IC50 with NCI-H1650 was > 500 nM.
Still for that read-out and setting: the same measure for `Cc1cc(N(CCCC(O)C[N+](C)(C)C)c2nc(C(=O)O)c(CCCOc3ccc(C#CCN(C)C(=O)OCc4ccc(NC(=O)[C@H](CCCNC(N)=O)NC(=O)[C@@H](NC(=O)CCOCCN5C(=O)CC(C)C5=O)C(C)C)cc4)cc3F)s2)nnc1Nc1nc2ccccc2s1` (mixture of isomers) [EGFR1-L9C-P5]: > 500 nM; for `Cc1cc(N(C)c2nc(C(=O)O)c(CCCOc3ccc(C#CC[N+](C)(C)Cc4ccc(NC(=O)[C@H](CCCNC(N)=O)NC(=O)[C@@H](NC(=O)CCOCCN5C(=O)CC(C)C5=O)C(C)C)cc4CN(Cc4cn(CCOCCOCCOCCOCCOCCOCCOCCOCCC(=O)O)nn4)C(=O)OCc4cn(CCOCCOCCOCCOCCOCCOCCOCCOCCC(=O)O)nn4)cc3F)s2)nnc1Nc1nc2ccccc2s1` (mixture of isomers) [EGFR1-L10A-P2]: < 6.17 nM; for `Cc1c(Cc2nc3ccccc3s2)nnc2c1CCCN2c1nc(C(=O)O)c(CCCOc2ccc(C#CCN(C)C(=O)OCc3ccc(NC(=O)[C@H](CCCNC(N)=O)NC(=O)[C@@H](NC(=O)CCOCCN4C(=O)CC(C)C4=O)C(C)C)cc3CN(Cc3cn(CCOCCOCCOCCOCCOCCOCCOCCOCCC(=O)O)nn3)C(=O)OCc3cn(CCOCCOCCOCCOCCOCCOCCOCCOCCC(=O)O)nn3)cc2F)s1` (mixture of isomers) [EGFR1-L10C-P3]: < 18.5 nM.
Consider `Cc1cc(N(CCCC(O)C[N+](C)(C)CCCS(=O)(=O)O)c2nc(C(=O)O)c(CCCOc3ccc(C#CCN(C)C(=O)OCc4ccccc4CN(C)C(=O)OCc4cn(CCOCCOCCOCCOCOCCOCCOCCOCCCC(=O)O)nn4)cc3F)s2)nnc1Nc1nc2ccccc2s1` (centres unmarked) [EGFR1-L3C-P4], for which, in the assay with NCI-H1650, the IC50 was > 500 nM.
As to `Cc1c(Nc2nc3ccccc3s2)nnc2c1CCCN2c1ccc(-c2cnn(CC34CC5(C)CC(C)(C3)CC(OCCN(CC[C@H](O)CO)C(=O)OCc3ccc(NC(=O)[C@H](CCCNC(N)=O)NC(=O)[C@@H](NC(=O)CCOCCN6C(=O)C=CC6=O)C(C)C)cc3CN(C)C(=O)CCOCCOCCOCCOCCOCCOCCOCCOCCOCCOCCOCCOCCOCCOCCOCCOCCOCCOCCOCCOCCOCCOCCOCCOCCOCCC(=O)O)(C5)C4)c2C)c(C(=O)O)n1` [L11C-P19], the “NCI-H1650 IC50 (nM)” value in the assay on NCI-H1650 is on record as “among the most potent”.
As to `Cc1c(Nc2nc3ccccc3s2)nnc2c1CCCN2c1ccc(-c2cnn(CC34CC5(C)CC(C)(C3)CC(OCCN(CCCO)C(=O)OCc3ccc(NC(=O)[C@H](CCCNC(N)=O)NC(=O)[C@@H](NC(=O)CCOCCN6C(=O)C=CC6=O)C(C)C)cc3CN(C)C(=O)CCOCCOCCOCCOCCOCCOCCOCCOCCOCCOCCOCCOCCOCCOCCOCCOCCOCCOCCOCCOCCOCCOCCOCCOCCOCCC(=O)O)(C5)C4)c2C)c(C(=O)O)n1` [L11C-P25], the “NCI-H1650 IC50 (nM)” value in the assay on NCI-H1650 is listed as “among the most potent”.
`Cc1cc(N(C)c2nc(C(=O)O)c(CCCOc3ccc(C#CCN(C)C)cc3F)s2)nnc1Nc1nc2ccccc2s1` [P2, 2-[[6-(1,3-benzothiazol-2-ylamino)-5-methyl-pyridazin-3-yl]-methyl-amino]-5-[3-[4-[3-(dimethylamino)prop-1-ynyl]-2-fluoro-phenoxy]propyl]thiazole-4-carboxylic acid]: the IC50 came out at 1.06 nM with H1650 cells (setting [1]); 1.9 nM in the assay on H1650 cells (setting [2]); 1.48 nM in the assay with H1650 cells (setting [3]); 0.111 nM with HCC1569 cells (setting [4]); 0.126 nM with HCC1569 cells (setting [5]); 0.096 nM in the assay on HCC1569 cells (setting [6]). In addition, the concentration for half-maximal inhibition (IC50) is 12.4 nM in the assay with HCC1569 cells (setting [7]), 13.1 nM in the assay with HCC1569 cells (setting [8]) and 11.7 nM with HCC1569 cells (setting [9]).
As for `CNCC#Cc1ccc(OCCCc2sc(N(C)c3cc(C)c(Nc4nc5ccccc5s4)nn3)nc2C(=O)O)c(F)c1` [P7, 2-[[6-(1,3-benzothiazol-2-ylamino)-5-methyl-pyridazin-3-yl]-methyl-amino]-5-[3-[2-fluoro-4-[3-(methylamino)prop-1-ynyl]phenoxy]propyl]thiazole-4-carboxylic acid], the IC50 in the assay with H1650 cells (setting [1]) is 7.5 nM; with H1650 cells (setting [2]), 4.7 nM; in the assay with H1650 cells (setting [3]), 6.1 nM; in the assay on HCC1569 cells (setting [4]), 0.436 nM; in the assay on HCC1569 cells (setting [5]), 0.443 nM; in the assay with HCC1569 cells (setting [6]), 0.429 nM. The results for the IC50 in the assay on HCC1569 cells (setting [7]), in the assay with HCC1569 cells (setting [8]) and in the assay on HCC1569 cells (setting [9]) were 33 nM, 40.3 nM and 25.6 nM, respectively.
